Data taken from patent US10669261B2, “Heteroarylhydroxypyrimidinones as agonists of the APJ receptor” (BRISTOL-MYERS SQUIBB COMPANY, priority 2015, dated 2020).

target: T1, human APJ receptor (Homo sapiens, UniProt P35414); assay: Intracellular cAMP accumulation assay (APJ hcAMP, HTRF); format: cell-based; settings: HEK293 cells stably expressing human APJ receptor; inhibition of forskolin-mediated cAMP production; stated at end of example; read-out: Human APJ cAMP Potency Range
T1 construct: expressed in transfected cells
T1 sequence (P35414 1-380): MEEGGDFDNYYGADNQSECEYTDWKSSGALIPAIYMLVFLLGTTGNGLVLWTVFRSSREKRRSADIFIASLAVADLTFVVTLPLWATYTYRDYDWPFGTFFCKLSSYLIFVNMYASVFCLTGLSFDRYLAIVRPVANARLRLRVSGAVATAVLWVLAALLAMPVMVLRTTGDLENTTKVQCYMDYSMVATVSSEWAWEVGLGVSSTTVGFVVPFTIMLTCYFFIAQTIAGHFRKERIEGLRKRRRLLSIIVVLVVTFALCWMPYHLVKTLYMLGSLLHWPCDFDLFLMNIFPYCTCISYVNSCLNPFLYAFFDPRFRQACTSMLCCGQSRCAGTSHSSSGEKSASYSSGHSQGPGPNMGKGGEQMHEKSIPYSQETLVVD
Protocol: Intracellular cAMP Accumulation Assay
HEK293 cells stably expressing human APJ receptor were used to assess the activity of compounds. Cultured cells were detached and resuspended in the cAMP Homogeneous Time-Resolved Fluorescence (HTRF) assay buffer (Cisbio cat; #62AM4PEJ). The assay was performed in 384-well assay plates (Perkin-Elmer; cat #6008289) according to assay protocol provided by the manufacturer. Serial dilutions of a compound together with assay buffer containing […] IBMX and 2 μM forskolin were added to each well containing 5,000 cells and incubated for 30 minutes at room temperature. Subsequently, cAMP D2 reagent was added in the lysis buffer followed by the EuK antibody (Cisbio; cat #62AM4PEJ) and incubated for 60 min. The fluorescence emission ratio was measured using fluorometer. The intracellular cAMP concentrations (compound-stimulated inhibition of forskolin-mediated cAMP production) were calculated by extrapolation from a standard curve using known cAMP concentrations. The EC50 values were obtained by fitting the data to a sigmoidal concentration-response curve with variable slope. The maximal achievable inhibition of forskolin-induced cAMP levels (Ymax) for each compound was expressed as relative percentage of inhibition attained using pyroglutamated apelin-13 ((Pyr1)apelin-13) peptide, which was set to 100%.
The examples disclosed below were tested in the APJ in vitro assays described above and were found having human APJ cyclic AMP (hcAMP) activity. The EC50 value of each compound is presented at the end of the example description.
The biological activity of the exemplified compounds of this invention determined by the assay described above is shown at the end of each example.

| EC50 [nM] | Structure (SMILES) |
| --- | --- |
| 0.01 to 10 | COc1cccc(OC)c1-n1c(CCC2CC2)nc(=O)c(-c2nnc(CN(C)C(=O)c3ccccn3)o2)c1O [Example 53, N-((5-(2-(2-cyclopropylethyl)-1-(2,6-dimethoxyphenyl)-6-hydroxy-4-oxo-1,4-dihydropyrimidin-5-yl)-1,3,4-oxadiazol-2-yl)methyl)-N-methylpicolinamide] |
| 0.01 to 10 | CCN(CC)C(=O)Cc1nnc(-c2c(O)n(-c3c(OC)cccc3OC)c(CCC3CC3)nc2=O)o1 [Example 52, 2-(5-(2-(2-Cyclopropylethyl)-1-(2,6-dimethoxyphenyl)-6-hydroxy-4-oxo-1,4-dihydropyrimidin-5-yl)-1,3,4-oxadiazol-2-yl)-N,N-diethylacetamide] |
| 0.01 to 10 | CCCCc1nc(O)c(-c2cnn(Cc3ccccc3)c2)c(=O)n1-c1c(OC)cccc1OC [Example 31, 5-(1-benzyl-1H-pyrazol-4-yl)-2-butyl-3-(2,6-dimethoxyphenyl)-6-hydroxypyrimidin-4(3H)-one] |
| 0.01 to 10 | CCOCc1nc(=O)c(-c2nnc(Cc3noc4ccccc34)o2)c(O)n1-c1c(OC)cccc1OC [Example 33, 5-(5-(benzo[d]isoxazol-3-ylmethyl)-1,3,4-oxadiazol-2-yl)-1-(2,6-dimethoxyphenyl)-6-hydroxy-2-(ethoxymethyl)pyrimidin-4(1H)-one] |
| 10 to 100 | CCCCc1nc(=O)c(-c2nnc(Cc3ccc(Cl)cc3)o2)c(O)n1-c1c(OC2CC2)cccc1OC1CC1 [Example 29, 2-butyl-5-(5-(4-chlorobenzyl)-1,3,4-oxadiazol-2-yl)-1-(2,6-dicyclopropoxyphenyl)-6-hydroxypyrimidin-4(1H)-one] |
| 0.01 to 10 | CCCCc1nc(O)c(-c2nnc(Cc3noc4ccccc34)o2)c(=O)n1[C@@H](CC)c1ccccc1 [Example 74, (S)-5-(5-(Benzo[d]isoxazol-3-ylmethyl)-1,3,4-oxadiazol-2-yl)-2-butyl-6-hydroxy-3-(1-phenylpropyl)pyrimidin-4(3H)-one] |
| 0.01 to 10 | COc1cccc(OC)c1-n1c(CCC2CC2)nc(=O)c(-c2nnc(Cc3noc4ccccc34)o2)c1O [Example 42, 5-(5-(benzo[d]isoxazol-3-ylmethyl)-1,3,4-oxadiazol-2-yl)-2-(2-cyclopropylethyl)-1-(2,6-dimethoxyphenyl)-6-hydroxypyrimidin-4(1H)-one] |

same assay, conditions: Table 1; HEK293 cells stably expressing human APJ receptor; read-out: hAPJ cAMP EC50 Potency range

| EC50 [nM] | Structure (SMILES) |
| --- | --- |
| 0.01 to 10 | COc1cccc(OC)c1-n1c(CCC2CC2)nc(=O)c(-c2nnc(CN(C)C(=O)c3ccccn3)o2)c1O [Example 54, N-({5-[2-(2-cyclopropylethyl)-1-(2,6-dimethoxyphenyl)-6-hydroxy-4-oxo-1,4-dihydropyrimidin-5-yl]-1,3,4-oxadiazol-2-yl}methyl)-N-methylpyridine-2-carboxamide] |
| 0.01 to 10 | COc1cccc(OC)c1-n1c(C2CCCC2)nc(=O)c(-c2nnc(Cc3ccc(F)cn3)o2)c1O [Example 67, 2-cyclopentyl-1-(2,6-dimethoxyphenyl)-5-{5-[(5-fluoropyridin-2-yl)methyl]-1,3,4-oxadiazol-2-yl}-6-hydroxy-1,4-dihydropyrimidin-4-one] |
| 0.01 to 10 | COc1cccc(OC)c1-n1c(CCC2CC2)nc(=O)c(-c2nnc(CNC(=O)c3ccccn3)o2)c1O [Example 58, N-({5-[2-(2-cyclopropylethyl)-1-(2,6-dimethoxyphenyl)-6-hydroxy-4-oxo-1,4-dihydropyrimidin-5-yl]-1,3,4-oxadiazol-2-yl}methyl)pyridine-2-carboxamide] |
| 0.01 to 10 | COc1cccc(OC)c1-n1c(CCC2CC2)nc(=O)c(-c2nnc(Cc3ccc(F)cn3)o2)c1O [Example 61, 2-(2-cyclopropylethyl)-1-(2,6-dimethoxyphenyl)-5-{5-[(5-fluoropyridin-2-yl)methyl]-1,3,4-oxadiazol-2-yl}-6-hydroxy-1,4-dihydropyrimidin-4-one] |
| 0.01 to 10 | COc1cccc(OC)c1-n1c(CCC2CC2)nc(=O)c(-c2nnc(CNC(=O)c3ccccc3)o2)c1O [Example 57, N-({5-[2-(2-cyclopropylethyl)-1-(2,6-dimethoxyphenyl)-6-hydroxy-4-oxo-1,4-dihydropyrimidin-5-yl]-1,3,4-oxadiazol-2-yl}methyl)benzamide] |

More lines, now with the values behind:

| Structure (SMILES) | EC50 [nM] |
| --- | --- |
| CCCCc1nc(O)c(-c2cnn(Cc3ccc(Cl)cc3)c2)c(=O)n1-c1c(OC)cccc1OC [Example 32, 2-butyl-5-{1-[(4-chlorophenyl)methyl]-1H-pyrazol-4-yl}-3-(2,6-dimethoxyphenyl)-6-hydroxy-3,4-dihydropyrimidin-4-one] | 0.01 to 10 |
| [2H]C([2H])([2H])Oc1cccc(OC([2H])([2H])[2H])c1-n1c(COCC)nc(=O)c(-c2nnc(Cc3ccc(Cl)cc3)o2)c1O [Example 51, 1-[2,6-bis(^2H3)methoxyphenyl]-5-{5-[(4-chlorophenyl)methyl]-1,3,4-oxadiazol-2-yl}-2-(ethoxymethyl)-6-hydroxy-1,4-dihydropyrimidin-4-one] | 0.01 to 10 |
| CCOCc1nc(=O)c(-c2nnc(Cc3ccc(Cl)cc3)o2)c(O)n1-c1c(OC)cccc1OC [Example 40, 5-{5-[(4-chlorophenyl)methyl]-1,3,4-oxadiazol-2-yl}-1-(2,6-dimethoxyphenyl)-2-(ethoxymethyl)-6-hydroxy-1,4-dihydropyrimidin-4-one] | 0.01 to 10 |
| COc1cccc(OC)c1-n1c(CCC2CC2)nc(=O)c(-c2nnc(Cc3ccc(Cl)cc3)o2)c1O [Example 45, 5-{5-[(4-chlorophenyl)methyl]-1,3,4-oxadiazol-2-yl}-2-(2-cyclopropylethyl)-1-(2,6-dimethoxyphenyl)-6-hydroxy-1,4-dihydropyrimidin-4-one] | 0.01 to 10 |
| COc1cccc(OC)c1-n1c(CCC(C)C)nc(=O)c(-c2nnc(CN3CCOCC3=O)o2)c1O [Example 16, 4-({5-[1-(2,6-dimethoxyphenyl)-6-hydroxy-2-(3-methylbutyl)-4-oxo-1,4-dihydropyrimidin-5-yl]-1,3,4-oxadiazol-2-yl}methyl)morpholin-3-one] | 0.01 to 10 |
| CCCCc1nc(=O)c(-c2nnc(Cc3noc4ccccc34)o2)c(O)n1-c1c(Cl)cccc1Cl [Example 19, 5-[5-(1,2-benzoxazol-3-ylmethyl)-1,3,4-oxadiazol-2-yl]-2-butyl-1-(2,6-dichlorophenyl)-6-hydroxy-1,4-dihydropyrimidin-4-one] | 0.01 to 10 |

same assay, conditions: Table 2; HEK293 cells stably expressing human APJ receptor; read-out: hAPJ cAMP EC50 Potency range

| EC50 [nM] | Structure (SMILES) |
| --- | --- |
| 100 to 300 | CCCCc1nc(O)c(-c2nnc(Cc3csc(C)n3)o2)c(=O)n1[C@H](C)C1CC1 [Example 80, 2-butyl-3-[(1R)-1-cyclopropylethyl]-6-hydroxy-5-{5-[(2-methyl-1,3-thiazol-4-yl)methyl]-1,3,4-oxadiazol-2-yl}-3,4-dihydropyrimidin-4-one] |
| 0.01 to 10 | CCCCc1nc(O)c(-c2nnc(Cc3noc4ccccc34)o2)c(=O)n1[C@H](C)c1ccccc1 [Example 86, 5-{5-[(1,2-benzoxazol-3-yl)methyl]-1,3,4-oxadiazol-2-yl}-2-butyl-6-hydroxy-3-[(1R)-1-phenylethyl]-3,4-dihydropyrimidin-4-one] |
| 10 to 100 | CCCCc1nc(O)c(-c2nnc(Cc3noc4ccccc34)o2)c(=O)n1[C@@H](C)c1cccc(OC)c1 [Example 114, 5-{5-[(1,2-benzoxazol-3-yl)methyl]-1,3,4-oxadiazol-2-yl}-2-butyl-6-hydroxy-3-[(1S)-1-(3-methoxyphenyl)ethyl]-3,4-dihydropyrimidin-4-one] |
| 10 to 100 | CCCCc1nc(O)c(-c2nnc(Cc3csc(C)n3)o2)c(=O)n1[C@H](C)c1ccccc1 [Example 82, 2-butyl-6-hydroxy-5-{5-[(2-methyl-1,3-thiazol-4-yl)methyl]-1,3,4-oxadiazol-2-yl}-3-[(1R)-1-phenylethyl]-3,4-dihydropyrimidin-4-one] |
| 10 to 100 | CCCCc1nc(O)c(-c2nnc(Cc3ccc(Cl)cc3)o2)c(=O)n1[C@H](CC)c1ccccc1 [Example 89, 2-butyl-5-{5-[(4-chlorophenyl)methyl]-1,3,4-oxadiazol-2-yl}-6-hydroxy-3-[(1R)-1-phenylpropyl]-3,4-dihydropyrimidin-4-one] |
| 10 to 100 | CCCCc1nc(O)c(-c2nnc(Cc3ccc(Cl)cn3)o2)c(=O)n1[C@@H]1CCc2ccccc21 [Example 122] |
| 0.01 to 10 | CCCCc1nc(O)c(-c2nnc(Cc3ccc(Cl)cn3)o2)c(=O)n1[C@H]1CCCc2ccccc21 [Example 100, 2-butyl-5-{5-[(5-chloropyridin-2-yl)methyl]-1,3,4-oxadiazol-2-yl}-6-hydroxy-3-[(1S)-1,2,3,4-tetrahydronaphthalen-1-yl]-3,4-dihydropyrimidin-4-one] |
